Results: US8575153B2 (Kowa Company, Ltd., priority 2008, dated 2013)

Target: Recombinant human JAK3 enzyme (JAK3 kinase region; Ala795-Ser1124) (Homo sapiens, UniProt P52333)
Test: JAK3 Kinase Assay (Kinase-Glo luminescent, ATP consumption)
Conditions: read-out: Inhibition rate (%) of JAK3 kinase activity
Experimental: Recombinant human JAK3 enzyme (JAK3 kinase region; Ala795-Ser1124) was purchased from Carna Biosciences, Inc.
The reaction was conducted in a kinase buffer (reaction volume: a total of 50 μl) containing 8 mM MOPS (pH 7.0), 0.2 mM EDTA, a test compound solution prepared to each concentration and 0.5 μg/ml JAK3 enzyme using a 96-well polystyrene plate (clear-bottom white-wall). […] After incubating them at room temperature for 2 hours, 50 μl of Kinase-Glo Luminescent Kinase Assay reagent (Promega) was added to each well, and further incubated at room temperature for 10 minutes. Using a chemiluminescence microplate reader MicroLumat LB96P (Berthold), chemiluminescence intensity was measured to quantitate the amount of ATP remaining after reaction. From the amount of ATP consumed in the phosphorylation reaction, the inhibition rate (%) of JAK3 kinase activity was determined.

Chain of Recombinant human JAK3 enzyme (JAK3 kinase region; Ala795-Ser1124) (P52333 795-1124): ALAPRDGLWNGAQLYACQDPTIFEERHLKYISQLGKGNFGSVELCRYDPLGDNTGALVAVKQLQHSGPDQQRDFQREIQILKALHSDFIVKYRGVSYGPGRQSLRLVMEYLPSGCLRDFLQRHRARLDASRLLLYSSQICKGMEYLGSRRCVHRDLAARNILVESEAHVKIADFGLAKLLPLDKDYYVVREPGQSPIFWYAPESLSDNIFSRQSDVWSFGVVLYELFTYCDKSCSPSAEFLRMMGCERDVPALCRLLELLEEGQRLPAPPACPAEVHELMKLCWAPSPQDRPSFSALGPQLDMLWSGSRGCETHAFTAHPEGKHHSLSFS

inhibition at 0.1 µM	inhibition at 1 µM	SMILES
70%	–	CN(CCN1CCOCC1)c1ccc(Nc2cc(NCc3ccccc3)c(C(N)=O)cn2)cc1 [Example 71, 4-(benzylamino)-6-({4-[methyl(2-morpholinoethyl)amino]phenyl}amino)pyridine-3-carboxyamide]
89%	–	NC(=O)c1cnc(Nc2ccc(N3CCC(O)CC3)cc2)cc1NCc1cc(F)ccc1F [Example 188, 4-[(2,5-difluorobenzyl)amino]-6-[(4-(4-hydroxypiperidino)phenyl]amino}pyridine-3-carboxyamide]
74%	–	N#CCC(=O)N1CCN(c2ccc(Nc3cc(NCc4cc(F)ccc4F)c(C(N)=O)cn3)cc2)CC1 [Example 265, 6-({4-[4-(cyanoacetyl)piperazin-1-yl]phenyl}amino)-4-[(2,5-difluorobenzyl)amino]pyridine-3-carboxyamide]
71%	–	NC(=O)c1cnc(Nc2ccc(C(=O)C(F)(F)F)cc2)cc1NCc1cc(F)cc(F)c1 [Example 326, 4-[(3,5-difluorobenzyl)amino]-6-{[(4-trifluoroacetyl)phenyl]amino}pyridine-3-carboxyamide]
71%	–	NC(=O)c1cnc(Nc2ccc(N3CCCS3(=O)=O)cc2)cc1NCc1ccccc1 [Example 307, 4-(benzylamino)-6-{[4-(1,1-dioxo-1,2-thiazolidin-2-yl)phenyl]amino}pyridine-3-carboxyamide]
59%	–	COCCNS(=O)(=O)c1ccc(Nc2cc(NCc3cc(F)cc(F)c3)c(C(N)=O)cn2)cc1 [Example 330, 4-[(3,5-difluorobenzyl)amino]-6-({4-[(2-methoxyethyl)sulfamoyl]phenyl}amino)pyridine-3-carboxyamide]
63%	–	NC(=O)c1cnc(Nc2ccc(N3CCC(CCO)CC3)cc2)cc1NCc1cccc([N+](=O)[O-])c1 [Example 180, 6-({4-[4-(2-hydroxyethyl)piperidino]phenyl}amino)-4-[(3-nitrobenzyl)amino]pyridine-3-carboxyamide]
72%	–	NC(=O)c1cnc(Nc2ccc(NCCO)cc2)cc1NCc1cc(F)cc(F)c1 [Example 234, 4-[(3,5-difluorobenzyl)amino]-6-({4-[(2-hydroxyethyl)amino]phenyl}amino)pyridine-3-carboxyamide]
61%	–	CS(=O)(=O)N1CCN(c2ccc(Nc3cc(NCc4cc(F)cc(F)c4)c(C(N)=O)cn3)cc2)CC1 [Example 293, 4-[(3,5-difluorobenzyl)amino]-6-({4-[4-(methylsulfonyl)piperazin-1-yl]phenyl}amino)pyridine-3-carboxyamide]
92%	–	N#CCC(=O)N1CCN(c2ccc(Nc3cc(NCc4cc(F)cc(F)c4)c(C(N)=O)cn3)cc2)CC1 [Example 264, 6-({4-[4-(cyanoacetyl)piperazin-1-yl]phenyl}amino)-4-[(3,5-difluorobenzyl)amino]pyridine-3-carboxyamide]
84%	–	CS(=O)(=O)N1CCN(c2ccc(Nc3cc(NCc4cccc(F)c4F)c(C(N)=O)cn3)cc2)CC1 [Example 292, 4-[(2,3-difluorobenzyl)amino]-6-({4-[4-(methylsulfonyl)piperazin-1-yl]phenyl}amino)pyridine-3-carboxyamide]
59%	–	CC(C)N1CCN(c2cccc(Nc3cc(NCc4cc(F)cc(F)c4)c(C(N)=O)cn3)c2)CC1 [Example 155, 4-[(3,5-difluorobenzyl)amino]-6-({3-[4-(propan-2-yl)piperazin-1-yl]phenyl}amino)pyridine-3-carboxyamide]
79%	–	CCN(CC)CC(=O)N1CCN(c2ccc(Nc3cc(NCc4ccccc4)c(C(N)=O)cn3)cc2)CC1 [Example 274, 4-(benzylamino)-6-({4-[4-(N,N-diethylglycyl)piperazin-1-yl]phenyl}amino)pyridine-3-carboxyamide]
83%	–	C[C@H]1COCCN1c1ccc(Nc2cc(NCc3ccccc3)c(C(N)=O)cn2)cc1 [Example 134, 4-(benzylamino)-6-({4-[(3S)-3-methylmorpholino]phenyl}amino)pyridine-3-carboxyamide]
71%	–	CCN(CC)C(=O)N1CCC(Nc2ccc(Nc3cc(NCc4ccccc4)c(C(N)=O)cn3)cc2)CC1 [Example 290, 4-(benzylamino)-6-[(4-{[1-(diethylcarbamoyl)piperidin-4-yl]amino}phenyl)amino]pyridine-3-carboxyamide]
61%	–	C[C@@H]1CN(c2cccc(Nc3cc(NCc4cc(F)cc(F)c4)c(C(N)=O)cn3)c2)C[C@H](C)N1 [Example 144, 4-[(3,5-difluorobenzyl)amino]-6-({3-[(3R,5S)-3,5-dimethylpiperazin-1-yl]phenyl}amino) pyridine-3-carboxyamide]
75%	–	NC(=O)c1cnc(Nc2ccc(NCCN3CCOCC3)cc2)cc1NCc1ccccc1 [Example 70, 4-(benzylamino)-6-({4-[(2-morpholinoethyl)amino]phenyl}amino)pyridine-3-carboxyamide]
–	79%	NC(=O)c1cnc(Nc2ccc(N3CCOCC3)cc2)cc1NC1CCCCC1 [Example 345, 4-cyclohexylamino-6-[(4-morpholinophenyl)amino]pyridine-3-carboxyamide]
59%	–	CC(C)S(=O)(=O)N1CCN(c2ccc(Nc3cc(NCc4c(F)cccc4F)c(C(N)=O)cn3)cc2)CC1 [Example 172, 4-[(2,6-difluorobenzyl)amino]-6-({4-[4-(propan-2-ylsulfonyl)piperazin-1-yl]phenyl}amino) pyridine-3-carboxyamide]

inhibition at 0.1 µM	inhibition at 1 µM	SMILES
78%	–	CCN(CC)CCN1CCN(c2ccc(Nc3cc(NCc4cccc(F)c4F)c(C(N)=O)cn3)cc2)CC1 [Example 237, 6-[(4-{4-[2-(diethylamino)ethyl]piperazin-1-yl}phenyl)amino]-4-[(2,3-difluorobenzyl)amino]pyridine-3-carboxyamide]
59%	–	CN1CCCN(c2ccc(Nc3cc(NCc4ccccc4)c(C(N)=O)cn3)cc2)CC1 [Example 244, 4-(benzylamino)-6-{[4-(4-methyl-1,4-diazepan-1-yl)phenyl]amino}pyridine-3-carboxyamide]
79%	–	NC(=O)c1cnc(Nc2ccc(N)cc2)cc1NCc1ccccc1 [Example 65, 6-[(4-aminophenyl)amino]-4-(benzylamino) pyridine-3-carboxyamide]
59%	–	CCN(CC)C(=O)Nc1ccc(Nc2cc(NCc3ccccc3)c(C(N)=O)cn2)cc1 [Example 279, 4-(benzylamino)-6-({4-[(diethylcarbamoyl)amino]phenyl}amino)pyridine-3-carboxyamide]
66%	–	CS(=O)(=O)Nc1ccc(Nc2cc(NCc3cccc([N+](=O)[O-])c3)c(C(N)=O)cn2)cc1 [Example 160, 4-[(3-nitrobenzyl)amino]-6-({4-[(methylsulfonyl)amino]phenyl}amino)pyridine-3-carboxyamide]
56%	–	COc1ccccc1CNc1cc(Nc2ccc(N3CCOCC3)cc2)ncc1C(N)=O [Example 73, 4-[(2-methoxybenzyl)amino]-6-[(4-morpholinophenyl)amino]pyridine-3-carboxyamide]
–	9%	N#Cc1ccc2ncn(-c3cc(NCc4cc(F)cc(F)c4)c(C(N)=O)cn3)c2c1 [Example 366, 6-(6-cyano-1H-benzimidazol-1-yl)-4-[(3,5-difluorobenzyl)amino]pyridine-3-carboxyamide]
78%	–	CCN(CC)CCS(=O)(=O)Nc1ccc(Nc2cc(NCc3cc(F)cc(F)c3)c(C(N)=O)cn2)cc1 [Example 304, 6-{[4-({[2-(diethylamino)ethyl]sulfonyl}amino)phenyl]amino}-4-[(3,5-difluorobenzyl)amino]pyridine-3-carboxyamide]
–	81%	NC(=O)c1cnc(Nc2ccc(N3CCOCC3)nc2)cc1NCc1ccccc1 [Example 373, 4-benzylamino-6-[(6-morpholinopyridin-3-yl)amino]pyridine-3-carboxyamide]
78%	–	NC(=O)c1cnc(Nc2ccc(N3CCNCC3)cc2)cc1NCc1cc(F)cc(F)c1 [Example 221, 4-[(3,5-difluorobenzyl)amino]-6-{[4-(piperazin-1-yl)phenyl]amino}pyridine-3-carboxyamide]
74%	–	NC(=O)c1cnc(Nc2cccc(N3CCNCC3)c2)cc1NCc1cc(F)cc(F)c1 [Example 225, 4-[(3,5-difluorobenzyl)amino]-6-{[3-(piperazin-1-yl)phenyl]amino}pyridine-3-carboxyamide]
70%	–	N#CCCN1CCN(c2ccc(Nc3cc(NCc4ccccc4)c(C(N)=O)cn3)cc2)CC1 [Example 241]
69%	–	NC(=O)c1cnc(Nc2ccc(C(=O)O)cc2)cc1NCc1cc(F)cc(F)c1 [Example 332, 6-[(4-carboxyphenyl)amino]-4-[(3,5-difluorobenzyl)amino]pyridine-3-carboxyamide]
77%	–	NC(=O)c1cnc(Nc2ccc(N3CCOCC3)cc2)cc1NCc1cccc(F)c1F [Example 90, 4-[(2,3-difluorobenzyl)amino]-6-[(4-morpholinophenyl)amino]pyridine-3-carboxyamide]
80%	–	C[C@@H]1CN(c2ccc(Nc3cc(NCc4ccccc4)c(C(N)=O)cn3)cc2)C[C@H](C)N1 [Example 136, 4-(benzylamino)-6-({4-[(3R,5S)-3,5-dimethylpiperazin-1-yl]phenyl}amino)pyridine-3-carboxyamide]
62%	–	C[C@@H]1CN(c2ccc(Nc3cc(NCc4cccc(F)c4F)c(C(N)=O)cn3)cc2)C[C@H](C)N1 [Example 140, 4-[(2,3-difluorobenzyl)amino]-6-({4-[(3R,5S)-3,5-dimethylpiperazin-1-yl]phenyl}amino)pyridine-3-carboxyamide]
54%	–	CC(C)S(=O)(=O)Nc1cccc(Nc2cc(NCc3cc(F)cc(F)c3)c(C(N)=O)cn2)c1 [Example 165, 4-[(3,5-difluorobenzyl)amino]-6-({3-[(propan-2-ylsulfonyl)amino]phenyl}amino)pyridine-3-carboxyamide]
81%	–	NC(=O)c1cnc(Nc2ccc(N3CCNCC3)cc2)cc1NCc1c(F)cccc1F [Example 223, 4-[(2,6-difluorobenzyl)amino]-6-{[4-(piperazin-1-yl)phenyl]amino}pyridine-3-carboxyamide]
